From US12258327B2, “5-membered heteroaryl-containing aminopyridine compounds as EGFR inhibitors” (YUHAN CORPORATION, priority 2021, dated 2025)
Where two headings read alike, the source gives them in different places.

Legend:
[1] = target: EGFR del19/T790M/C797S (Homo sapiens, UniProt P00533, C797S/DEL746-750/T790M); assay: Biochemical EGFR kinase assay (Lance Ultra TR-FRET), triple mutant del19/T790M/C797S
In short: (§1)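 In this biochemical assay, phosphorylation after a one-hour room-temperature reaction was detected with europium-labelled anti-phosphopeptide antibody at 2 nM final concentration.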

[2] = target: EGFR L858R/T790M/C797S (Homo sapiens, UniProt P00533, C797S/L858R/T790M); assay: Biochemical EGFR kinase assay (Lance Ultra TR-FRET), triple mutant L858R/T790M/C797S
In short: as §1

[3] = target: EGFR wildtype (WT) (Homo sapiens, UniProt P00533); assay: Biochemical EGFR kinase assay (Lance Ultra TR-FRET), wildtype
EGFR wildtype (WT), sequence (P00533 25-1210): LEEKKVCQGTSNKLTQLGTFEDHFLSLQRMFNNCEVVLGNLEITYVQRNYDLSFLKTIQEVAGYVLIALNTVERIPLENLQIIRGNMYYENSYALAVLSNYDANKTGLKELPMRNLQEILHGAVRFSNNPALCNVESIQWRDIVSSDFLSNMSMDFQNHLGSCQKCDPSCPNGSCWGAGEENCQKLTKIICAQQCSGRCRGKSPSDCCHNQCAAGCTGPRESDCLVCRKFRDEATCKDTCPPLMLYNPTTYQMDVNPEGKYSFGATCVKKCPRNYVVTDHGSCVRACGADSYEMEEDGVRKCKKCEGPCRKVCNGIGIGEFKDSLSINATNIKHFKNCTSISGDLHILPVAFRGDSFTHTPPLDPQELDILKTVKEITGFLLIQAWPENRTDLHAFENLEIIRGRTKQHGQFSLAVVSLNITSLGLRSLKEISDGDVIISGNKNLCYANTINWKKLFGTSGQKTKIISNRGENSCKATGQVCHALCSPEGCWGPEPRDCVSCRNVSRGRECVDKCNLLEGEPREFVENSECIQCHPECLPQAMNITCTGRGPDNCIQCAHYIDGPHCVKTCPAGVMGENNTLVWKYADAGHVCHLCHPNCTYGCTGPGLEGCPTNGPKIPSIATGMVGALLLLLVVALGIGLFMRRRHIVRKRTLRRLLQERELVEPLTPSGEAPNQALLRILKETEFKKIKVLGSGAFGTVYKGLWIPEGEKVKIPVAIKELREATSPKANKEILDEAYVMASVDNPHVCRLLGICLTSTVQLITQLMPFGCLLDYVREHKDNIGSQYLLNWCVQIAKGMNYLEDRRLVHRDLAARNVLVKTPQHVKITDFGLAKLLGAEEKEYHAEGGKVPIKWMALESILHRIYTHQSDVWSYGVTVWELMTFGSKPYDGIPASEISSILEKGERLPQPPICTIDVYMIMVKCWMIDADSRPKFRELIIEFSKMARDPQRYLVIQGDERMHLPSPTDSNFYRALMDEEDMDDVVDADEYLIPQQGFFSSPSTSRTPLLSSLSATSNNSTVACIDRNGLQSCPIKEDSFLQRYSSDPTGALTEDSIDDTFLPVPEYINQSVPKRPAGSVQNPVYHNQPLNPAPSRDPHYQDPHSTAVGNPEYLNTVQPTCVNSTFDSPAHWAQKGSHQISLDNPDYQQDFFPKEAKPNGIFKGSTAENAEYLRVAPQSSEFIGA
In short: as §1

[4] = target: EGFR del19/C797S (Homo sapiens, UniProt P00533, C797S/DEL746-750); assay: Biochemical EGFR kinase assay (Lance Ultra TR-FRET), double mutant del19/C797S
EGFR del19/C797S, sequence (P00533 with tags, fused parts or gaps DEL746-750/C797S): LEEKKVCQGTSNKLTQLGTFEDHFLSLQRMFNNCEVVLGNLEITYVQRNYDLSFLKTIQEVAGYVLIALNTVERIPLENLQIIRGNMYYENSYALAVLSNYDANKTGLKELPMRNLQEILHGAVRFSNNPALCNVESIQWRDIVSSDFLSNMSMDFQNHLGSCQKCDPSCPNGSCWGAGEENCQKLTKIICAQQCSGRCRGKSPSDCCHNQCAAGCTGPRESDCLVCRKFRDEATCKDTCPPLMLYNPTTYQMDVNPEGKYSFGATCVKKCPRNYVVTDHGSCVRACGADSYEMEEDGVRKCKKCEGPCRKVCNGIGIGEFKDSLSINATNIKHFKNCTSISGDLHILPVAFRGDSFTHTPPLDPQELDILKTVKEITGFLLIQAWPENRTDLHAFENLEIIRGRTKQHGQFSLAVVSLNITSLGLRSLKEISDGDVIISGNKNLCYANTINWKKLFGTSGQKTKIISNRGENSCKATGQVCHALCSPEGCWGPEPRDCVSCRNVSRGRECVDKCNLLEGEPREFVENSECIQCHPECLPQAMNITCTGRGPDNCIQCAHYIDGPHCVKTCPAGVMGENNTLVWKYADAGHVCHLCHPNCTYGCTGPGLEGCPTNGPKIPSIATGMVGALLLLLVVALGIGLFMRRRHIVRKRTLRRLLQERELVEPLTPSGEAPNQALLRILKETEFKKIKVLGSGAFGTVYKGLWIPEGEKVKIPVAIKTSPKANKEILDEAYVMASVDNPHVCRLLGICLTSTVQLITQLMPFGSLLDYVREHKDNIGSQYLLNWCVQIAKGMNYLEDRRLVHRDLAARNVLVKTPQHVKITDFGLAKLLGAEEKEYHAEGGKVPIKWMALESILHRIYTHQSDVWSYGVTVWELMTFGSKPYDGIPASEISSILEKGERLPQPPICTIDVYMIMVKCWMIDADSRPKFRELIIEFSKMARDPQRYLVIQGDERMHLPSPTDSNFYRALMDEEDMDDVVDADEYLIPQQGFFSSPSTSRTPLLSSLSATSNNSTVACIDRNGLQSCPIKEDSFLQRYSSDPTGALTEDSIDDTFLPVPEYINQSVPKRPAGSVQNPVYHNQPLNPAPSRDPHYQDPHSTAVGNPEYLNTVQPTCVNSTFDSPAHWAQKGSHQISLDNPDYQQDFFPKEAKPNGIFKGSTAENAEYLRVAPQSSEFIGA
In short: as §1

[5] = target: EGFR L858R/C797S (Homo sapiens, UniProt P00533, C797S/L858R); assay: Biochemical EGFR kinase assay (Lance Ultra TR-FRET), double mutant L858R/C797S
EGFR L858R/C797S, sequence (P00533 25-1210 C797S/L858R): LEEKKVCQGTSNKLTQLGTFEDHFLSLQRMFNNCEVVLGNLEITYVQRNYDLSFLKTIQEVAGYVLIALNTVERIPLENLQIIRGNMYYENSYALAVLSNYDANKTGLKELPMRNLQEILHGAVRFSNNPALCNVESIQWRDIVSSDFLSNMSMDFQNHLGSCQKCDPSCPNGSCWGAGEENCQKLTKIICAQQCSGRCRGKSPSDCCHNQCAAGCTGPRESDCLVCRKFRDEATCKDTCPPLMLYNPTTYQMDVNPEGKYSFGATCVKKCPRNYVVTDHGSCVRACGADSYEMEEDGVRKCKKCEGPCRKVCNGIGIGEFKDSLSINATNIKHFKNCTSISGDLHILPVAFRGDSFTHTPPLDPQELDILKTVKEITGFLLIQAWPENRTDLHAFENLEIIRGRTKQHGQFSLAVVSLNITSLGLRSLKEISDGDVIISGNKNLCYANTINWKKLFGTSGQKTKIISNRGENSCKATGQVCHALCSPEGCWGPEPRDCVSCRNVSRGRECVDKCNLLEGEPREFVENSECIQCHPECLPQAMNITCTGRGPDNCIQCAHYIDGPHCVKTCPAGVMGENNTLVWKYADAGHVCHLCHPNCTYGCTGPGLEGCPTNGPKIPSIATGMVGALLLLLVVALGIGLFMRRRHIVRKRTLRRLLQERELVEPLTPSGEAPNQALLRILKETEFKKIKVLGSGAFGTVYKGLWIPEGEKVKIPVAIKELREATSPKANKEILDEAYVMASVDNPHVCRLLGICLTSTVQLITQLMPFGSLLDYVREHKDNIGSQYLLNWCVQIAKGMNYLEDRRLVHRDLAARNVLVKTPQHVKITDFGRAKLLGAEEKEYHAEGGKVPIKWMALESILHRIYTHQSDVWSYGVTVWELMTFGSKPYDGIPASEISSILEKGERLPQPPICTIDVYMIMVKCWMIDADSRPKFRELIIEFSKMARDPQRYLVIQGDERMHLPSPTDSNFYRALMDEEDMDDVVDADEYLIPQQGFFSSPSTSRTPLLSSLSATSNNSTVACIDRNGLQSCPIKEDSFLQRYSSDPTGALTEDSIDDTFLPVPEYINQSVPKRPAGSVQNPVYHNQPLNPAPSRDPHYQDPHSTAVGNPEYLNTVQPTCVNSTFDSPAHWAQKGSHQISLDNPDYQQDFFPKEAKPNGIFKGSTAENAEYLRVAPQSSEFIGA
In short: as §1

[6] = IC50 del19/T790M/C797S (nM) 100 μM ATP, 100 μM ATP
[7] = Km ATP, read-out: IC50 del19/T790M/C797S (nM) Km ATP
[8] = IC50 L858R/T790M/C797S (nM) 100 μM ATP, 100 μM ATP
[9] = Km ATP, read-out: IC50 L858R/T790M/C797S (nM) Km ATP
[10] = IC50 WT (nM) 100 μM ATP, 100 μM ATP
[11] = Km ATP, read-out: IC50 WT (nM) Km ATP
[12] = IC50 del19/C797S (nM) 100 μM ATP, 100 μM ATP
[13] = Km ATP, read-out: IC50 del19/C797S (nM) Km ATP
[14] = IC50 L858R/C797S (nM) 100 μM ATP, 100 μM ATP
[15] = Km ATP, read-out: IC50 L858R/C797S (nM) Km ATP

EGFR del19/T790M/C797S, sequence (P00533 with tags, fused parts or gaps DEL746-750/T790M/C797S): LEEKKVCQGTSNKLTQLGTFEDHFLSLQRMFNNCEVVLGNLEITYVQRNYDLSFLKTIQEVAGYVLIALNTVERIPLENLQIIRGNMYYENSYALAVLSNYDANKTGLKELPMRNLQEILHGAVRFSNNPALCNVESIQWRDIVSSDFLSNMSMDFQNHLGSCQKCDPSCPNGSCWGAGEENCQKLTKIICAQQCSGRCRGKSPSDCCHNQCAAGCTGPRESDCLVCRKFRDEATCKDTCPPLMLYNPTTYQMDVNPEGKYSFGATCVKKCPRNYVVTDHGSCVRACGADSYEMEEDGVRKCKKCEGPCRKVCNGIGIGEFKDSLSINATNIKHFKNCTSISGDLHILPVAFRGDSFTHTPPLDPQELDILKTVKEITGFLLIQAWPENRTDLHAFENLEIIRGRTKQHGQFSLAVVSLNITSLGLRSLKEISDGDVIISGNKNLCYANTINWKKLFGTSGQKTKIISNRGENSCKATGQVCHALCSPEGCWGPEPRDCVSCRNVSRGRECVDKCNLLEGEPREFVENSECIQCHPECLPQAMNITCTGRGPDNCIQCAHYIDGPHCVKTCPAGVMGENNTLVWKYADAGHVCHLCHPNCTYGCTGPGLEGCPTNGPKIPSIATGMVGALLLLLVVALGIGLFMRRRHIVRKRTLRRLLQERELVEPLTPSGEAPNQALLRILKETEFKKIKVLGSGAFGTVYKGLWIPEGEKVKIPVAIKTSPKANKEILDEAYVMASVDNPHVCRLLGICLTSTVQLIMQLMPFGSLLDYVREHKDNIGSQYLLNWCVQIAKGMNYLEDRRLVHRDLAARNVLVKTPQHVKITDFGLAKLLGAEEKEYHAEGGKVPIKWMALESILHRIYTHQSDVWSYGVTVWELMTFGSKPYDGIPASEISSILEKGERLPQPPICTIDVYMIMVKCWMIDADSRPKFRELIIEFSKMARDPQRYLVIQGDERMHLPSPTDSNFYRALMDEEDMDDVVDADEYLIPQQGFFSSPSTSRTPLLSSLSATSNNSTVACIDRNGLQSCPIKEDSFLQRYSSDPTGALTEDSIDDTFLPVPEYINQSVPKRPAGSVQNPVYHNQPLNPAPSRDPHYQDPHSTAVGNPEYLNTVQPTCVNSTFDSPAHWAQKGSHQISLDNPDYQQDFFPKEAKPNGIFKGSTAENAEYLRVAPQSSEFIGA

IC50 [1, 6] [nM]	IC50 [1, 7] [nM]	IC50 [2, 8] [nM]	IC50 [2, 9] [nM]	IC50 [3, 10] [nM]	IC50 [3, 11] [nM]	IC50 [4, 12] [nM]	IC50 [4, 13] [nM]	IC50 [5, 14] [nM]	IC50 [5, 15] [nM]	IC50 ([1]; read-out: IC50 del19/T790M/C797S (nM) 100 μM ATP, 100 μM ATP) [nM]	IC50 ([2]; read-out: IC50 L858R/T790M/C797S (nM) 100 μM ATP, 100 μM ATP) [nM]	IC50 ([3]; read-out: IC50 WT (nM) 100 μM ATP, 100 μM ATP) [nM]	IC50 ([4]; read-out: IC50 del19/C797S (nM) 100 μM ATP, 100 μM ATP) [nM]	IC50 ([5]; read-out: IC50 L858R/C797S (nM) 100 μM ATP, 100 μM ATP) [nM]	IC50 ([1]; Km ATP, read-out: IC50 del19/T790M/C797S, Km ATP) [nM]	IC50 ([2]; Km ATP, read-out: IC50 L858R/T790M/C797S, Km ATP) [nM]	IC50 ([3]; Km ATP, read-out: IC50 WT, Km ATP) [nM]	IC50 ([4]; Km ATP, read-out: IC50 del19/C797S, Km ATP) [nM]	IC50 ([5]; Km ATP, read-out: IC50 L858R/C797S, Km ATP) [nM]	Compound
0.1	0.2	0.1	0.5	8270	28.7	8.8	6.7	576	25.4	–	–	–	–	–	–	–	–	–	–	CN(C)CC1(C)CCC(Nc2cc(Nc3ccnc(-c4cnn(S(=O)(=O)C5CC5)c4)n3)ncc2-c2ccn(CC(F)(F)F)n2)CC1 (stereo not shown) [Example 267, N^2-(2-(1-(Cyclopropylsulfonyl)-1H-pyrazol-4-yl)pyrimidin-4-yl)-N^4-(4-((dimethylamino)methyl)-4-methylcyclohexyl)-5-(1-(2,2,2-trifluoroethyl)-1H-pyrazol-3-yl)pyridine-2,4-diamine]
–	0.8	–	0.5	–	8630	–	134	–	21.4	–	–	–	–	–	–	–	–	–	–	O=S(=O)(C1CC1)n1cc(-c2nccc(Nc3cc(NC4CCN(CC(F)F)CC4)c(-c4ccn(C(F)F)n4)cn3)n2)cn1 [Example 219, N^2-(2-(1-(Cyclopropylsulfonyl)-1H-pyrazol-4-yl)pyrimidin-4-yl)-N^4-(1-(2,2-difluoroethyl)piperidin-4-yl)-5-(1-(difluoromethyl)-1H-pyrazol-3-yl)pyridine-2,4-diamine]
–	0.3	–	0.04	–	752	–	264	–	10.4	–	–	–	–	–	–	–	–	–	–	C[C@]1(O)CC[C@@H](Nc2cc(Nc3ccnc(-c4cnc5c(c4)CCCO5)n3)ncc2-c2ccn(C(F)F)n2)CC1 [Example 176, (1s,4s)-4-((5-(1-(Difluoromethyl)-1H-pyrazol-3-yl)-2-((2-(3,4-dihydro-2H-pyrano[2,3-b]pyridin-6-yl)pyrimidin-4-yl)amino)pyridin-4-yl)amino)-1-methylcyclohexan-1-ol]
7.4	12.1	5.4	3	2800	15.5	6.7	17.5	61.4	6.5	–	–	–	–	–	–	–	–	–	–	CN(CC(F)F)C[C@H]1CC[C@@H](Nc2cc(Nc3ccnc(-c4cnn(S(=O)(=O)C5CC5)c4)n3)ncc2-c2ccn(C)n2)CC1 [Example 237, N^2-(2-(1-(Cyclopropylsulfonyl)-1H-pyrazol-4-yl)pyrimidin-4-yl)-N^4-((1s,4s)-4-(((2,2-difluoroethyl)(methyl)amino)methyl)cyclohexyl)-5-(1-methyl-1H-pyrazol-3-yl)pyridine-2,4-diamine]
1.2	0.9	1.8	0.6	> 10000	109	11.9	9.1	119	6.7	–	–	–	–	–	–	–	–	–	–	O=S(=O)(C1CC1)n1cc(-c2nccc(Nc3cc(NC4CCC(F)(CO)CC4)c(-c4ccn(C(F)F)n4)cn3)n2)cn1 (stereo not shown) [Example 190, (4-((2-((2-(1-(Cyclopropylsulfonyl)-1H-pyrazol-4-yl)pyrimidin-4-yl)amino)-5-(1-(difluoromethyl)-1H-pyrazol-3-yl)pyridin-4-yl)amino)-1-fluorocyclohexyl)methanol]
–	4.2	–	2.8	–	1100	–	162	–	139	–	–	–	–	–	–	–	–	–	–	C[C@]1(O)CC[C@@H](Nc2cc(Nc3ccnc(Nc4ccnn4CC(F)F)n3)ncc2-c2ccn(C(F)F)n2)CC1 [Example 155, (1s,4s)-4-((2-((2-((1-(2,2-Difluoroethyl)-1H-pyrazol-5-yl)amino)pyrimidin-4-yl)amino)-5-(1-(difluoromethyl)-1H-pyrazol-3-yl)pyridin-4-yl)amino)-1-methylcyclohexan-1-ol]
–	–	–	–	–	–	–	–	–	–	18.8	28.7	> 10000	200	278	–	–	–	–	–	CC(C)(O)[C@H]1CC[C@@H](Nc2cc(Nc3ccnc(-c4cnn(S(=O)(=O)C5CC5)c4)n3)ncc2-c2csc(C(F)(F)F)n2)CC1 [Example 49, 2-((1s,4s)-4-((2-((2-(1-(Cyclopropylsulfonyl)-1H-pyrazol-4-yl)pyrimidin-4-yl)amino)-5-(2-(trifluoromethyl)thiazol-4-yl)pyridin-4-yl)amino)cyclohexyl)propan-2-ol]
–	0.6	–	0.5	–	199	–	23	–	7.2	–	–	–	–	–	–	–	–	–	–	C[C@]1(O)CC[C@@H](Nc2cc(Nc3ccnc(-c4cnn(CCF)c4)n3)ncc2-c2ccn(C(F)F)n2)CC1 [Example 145, (1s,4s)-4-((5-(1-(Difluoromethyl)-1H-pyrazol-3-yl)-2-((2-(1-(2-fluoroethyl)-1H-pyrazol-4-yl)pyrimidin-4-yl)amino)pyridin-4-yl)amino)-1-methylcyclohexan-1-ol]
0.6	0.5	0.5	0.3	582	1	0.4	0.5	1.4	0.3	–	–	–	–	–	–	–	–	–	–	CN(C)C[C@H]1CC[C@H](CNc2cc(Nc3ccnc(-c4cnn(S(=O)(=O)C5CC5)c4)n3)ncc2-c2ccn(C(F)F)n2)CC1 [Example 100, N^2-(2-(1-(Cyclopropylsulfonyl)-1H-pyrazol-4-yl)pyrimidin-4-yl)-5-(1-(difluoromethyl)-1H-pyrazol-3-yl)-N^4-(((1r,4r)-4-((dimethylamino)methyl)cyclohexyl)methyl)pyridine-2,4-diamine]
–	49.7	–	16.9	–	1980	–	1340	–	814	–	–	–	–	–	–	–	–	–	–	C[C@]1(O)CC[C@@H](Nc2cc(Nc3ccnc(-c4ccc(F)nc4F)n3)ncc2-c2ccn(C(F)F)n2)CC1 [Example 170, (1s,4s)-4-((5-(1-(Difluoromethyl)-1H-pyrazol-3-yl)-2-((2-(2,6-difluoropyridin-3-yl)pyrimidin-4-yl)amino)pyridin-4-yl)amino)-1-methylcyclohexan-1-ol]
4.3	2	2.4	0.8	2900	7.9	6.2	1.9	8.8	2.9	–	–	–	–	–	–	–	–	–	–	CC(C)(O)[C@H]1CC[C@@H](Nc2cc(Nc3ccnc(-c4cnn(S(=O)(=O)C5CC5)c4)n3)ncc2-c2cc3n(n2)CCCC3)CC1 [Example 61, 2-((1s,4s)-4-((2-((2-(1-(Cyclopropylsulfonyl)-1H-pyrazol-4-yl)pyrimidin-4-yl)amino)-5-(4,5,6,7-tetrahydropyrazolo[1,5-a]pyridin-2-yl)pyridin-4-yl)amino)cyclohexyl)propan-2-ol]
–	1.4	0.5	0.4	123	0.5	2	0.8	7.5	–	–	–	–	–	–	–	–	–	–	–	CN(C)C[C@H]1CC[C@@H](Nc2cc(Nc3ccnc(-c4cnn(S(=O)(=O)C5CC5)c4)n3)ncc2-c2cc(C(F)(F)F)n(C)n2)CC1 [Example 256, N^2-(2-(1-(Cyclopropylsulfonyl)-1H-pyrazol-4-yl)pyrimidin-4-yl)-N^4-((1s,4s)-4-((dimethylamino)methyl)cyclohexyl)-5-(1-methyl-5-(trifluoromethyl)-1H-pyrazol-3-yl)pyridine-2,4-diamine]
–	–	–	–	–	–	–	–	–	–	–	–	–	–	–	1	1.1	2550	37.3	20.5	O=S(=O)(C1CC1)n1cc(-c2ncc(F)c(Nc3cc(N[C@H]4CC[C@@H](CCO)CC4)c(-c4ccn(CC(F)F)n4)cn3)n2)cn1 [Example 336, 2-((1s,4s)-4-((2-((2-(1-(Cyclopropylsulfonyl)-1H-pyrazol-4-yl)-5-fluoropyrimidin-4-yl)amino)-5-(1-(2,2-difluoroethyl)-1H-pyrazol-3-yl)pyridin-4-yl)amino)cyclohexyl)ethan-1-ol]
6.5	2.5	4.1	1.2	> 10000	288	37.1	24.6	1140	75	–	–	–	–	–	–	–	–	–	–	Cn1nc(-c2cnc(Nc3ccnc(-c4cnn(CC(F)(F)F)c4)n3)cc2N[C@H]2CC[C@@](C)(O)CC2)cc1C(F)(F)F [Example 329, (1s,4s)-1-Methyl-4-((5-(1-methyl-5-(trifluoromethyl)-1H-pyrazol-3-yl)-2-((2-(1-(2,2,2-trifluoroethyl)-1H-pyrazol-4-yl)pyrimidin-4-yl)amino)pyridin-4-yl)amino)cyclohexan-1-ol]
